Experimental data: patent US11702441B2, “Spirobicyclic analogues” (Janssen Pharmaceutica NV, priority 2017, dated 2023)

Molecular target: T1, PRMT5-MEP50 enzyme (Homo sapiens, UniProt O14744)
T1 construct: One virus expresses full length human PRMT5 with Flag-tag at N-terminus; Flag (N); purchased Charles River (Argenta); host or cells: insect cells (Sf9), baculovirus co-infection
Test: High throughput mass spectrometer assay of PRMT5-MEP50 enzyme activity (SAH formation)
Assay type: biochemical
Conditions: averaged values; inhibition of SAH formation; 1 μM SAM, 0.3 μM H2A, 1.25 nM enzyme, 30° C.
From the text: Reagents. PRMT5-MEP50 enzyme was purchased from Charles River (Argenta). The enzyme complex was produced in insect cells (Sf9) infected simultaneously with two baculoviruses. One virus expresses full length human PRMT5 with Flag-tag at N-terminus, the second virus expresses full length MEP50 with His6-TEV cleavage at N-terminus. The protein was affinity purified using anti-Flag (M2) beads eluted with 3×FLAG peptide, followed by His-Select eluted with 0.5M imidazole. Eluted protein was then dialysed against tris-buffered saline (TBS) (pH 8.0) containing 20% glycerol and 3 mM dithiothreitol (DTT).
Full-length untagged human recombinant histone H2A (residues 1-130, Genbank Accession #NM_021052, MW=14.1 kDa) expressed in E. coli was purchased from Reaction Biology Corporation, Cat #HMT-11-146. Reagents used for making reaction buffer or stopping reaction were purchased including Tris base (Sigma Cat #T-1503), NaCl (Sigma Cat #RGF-3270), MgCl2 (Sigma Cat #M0250), DTT (Invitrogen Cat #15508-013) and Formic Acid (Riedel deHaen, Cat #33015)
High Throughput Mass Spectrometer Assay PRMT5 catalyzes the sequential methylations of the terminal nitrogen atoms on the guanidine groups of arginine residues within proteins using co-substrate S-adenosyl-L-methionine (AdoMet, SAM), forming mono-methyl (MMA), symmetric-dimethyl arginine (sDMA) and S-adenosyl-L-homocysteine (AdoHcy, SAH). The enzyme activity was determined by following the product SAH formation using high throughput mass spectrometry (Agilent Rapidfire 300 System coupled to a Sciex 4000 series QTrap® triple-quad MS/MS). The reaction buffer was 20 mM Tris-HCl, pH 8.5, 50 mM NaCl. 5 mM MgCl2 and 1 mM DTT. The reaction activity was stopped using 1% formic acid (final concentration).
Inhibition Studies. The IC50 Studies were performed using eleven point dosing series made for each compound by serially diluted 1:2 in dimethyl sulfoxide (DMSO), with point 12 being a DMSO control. Compounds were first spotted to plates, and followed by addition of 2 μM SAM and 0.6 μM H2A (histone H2A) solution mixture. The same volume of enzyme solution was added to initiate the enzymatic reactions. The final concentrations of the reaction are at 1 μM SAM, 0.3 μM H2A and 1.25 nM enzyme. The reaction was incubated at 30° C. for 60 minutes (min) when 10 nM enzyme was used and for 120 min when 1.25 nM enzyme was used. Subsequently, the reaction was quenched by addition of formic acid to a final concentration of 1%. The inhibitions of SAH formation in the presence of compounds were calculated as a percentage of the control relative to the uninhibited reaction as a function of inhibitor concentration. The data were fit as follows: Y=Bottom+(Top−Bottom)/(1+10^((log IC50−X)*h))
where IC50 is the inhibitor concentration (same unit as X) at 50% inhibition and h is the Hill slope. Y is percent of inhibition, X is log of compound concentration. Bottom and Top are the plateaus in same units as Y.
The pIC50 values in the Table below are averaged values (Co. No. means compound number: n.d. means not determined)

T1 sequence (O14744 whole entry): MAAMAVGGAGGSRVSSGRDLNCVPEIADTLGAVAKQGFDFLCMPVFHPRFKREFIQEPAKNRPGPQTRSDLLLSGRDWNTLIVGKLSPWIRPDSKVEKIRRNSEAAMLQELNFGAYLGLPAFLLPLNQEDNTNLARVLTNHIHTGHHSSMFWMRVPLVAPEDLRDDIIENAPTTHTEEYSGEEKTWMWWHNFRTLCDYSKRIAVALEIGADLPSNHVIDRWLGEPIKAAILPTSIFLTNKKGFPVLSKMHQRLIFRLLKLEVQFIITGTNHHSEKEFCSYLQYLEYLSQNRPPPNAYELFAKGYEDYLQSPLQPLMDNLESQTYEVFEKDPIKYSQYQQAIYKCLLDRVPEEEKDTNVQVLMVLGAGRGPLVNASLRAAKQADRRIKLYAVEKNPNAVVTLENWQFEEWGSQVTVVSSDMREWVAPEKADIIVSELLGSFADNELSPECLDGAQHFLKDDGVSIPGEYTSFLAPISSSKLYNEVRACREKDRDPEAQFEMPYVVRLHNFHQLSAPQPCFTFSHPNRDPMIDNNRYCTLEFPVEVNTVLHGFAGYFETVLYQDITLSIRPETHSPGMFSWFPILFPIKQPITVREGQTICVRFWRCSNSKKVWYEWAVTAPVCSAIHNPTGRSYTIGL
T1 sequence (Q9BQA1 whole entry partner): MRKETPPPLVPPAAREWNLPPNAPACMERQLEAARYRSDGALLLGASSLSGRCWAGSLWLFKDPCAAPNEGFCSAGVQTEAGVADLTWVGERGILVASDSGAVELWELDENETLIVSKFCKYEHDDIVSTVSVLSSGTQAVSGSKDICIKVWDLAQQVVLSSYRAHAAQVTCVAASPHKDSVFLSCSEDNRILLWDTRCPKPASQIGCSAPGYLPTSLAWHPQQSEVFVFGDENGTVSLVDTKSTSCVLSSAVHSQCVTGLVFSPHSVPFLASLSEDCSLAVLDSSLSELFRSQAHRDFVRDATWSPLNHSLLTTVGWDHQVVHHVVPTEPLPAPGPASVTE

| SMILES | pIC50 | IC50 [nM] |
| --- | --- | --- |
| Cl.Nc1ncnc2c1ccn2[C@@H]1CC2(CC(Cn3c(Cl)cccc3=O)C2)[C@@H](O)[C@H]1O (mixture of isomers) [Compound 32] | 5.69 | – |
| Nc1ncnc2c1ncn2[C@@H]1O[C@]2(C[C@@H](Oc3ccc4ccc(Cl)nc4c3)C2)[C@@H](O)[C@H]1O [Compound 3] | – | 8130 |
| Nc1ncnc2c1ncn2[C@@H]1O[C@]2(C[C@@H](Oc3ccc4cc(Br)cnc4c3)C2)[C@@H](O)[C@H]1O [Compound 4] | – | 3020 |
| Nc1ccc2ccc(O[C@H]3C[C@@]4(C3)O[C@@H](n3cnc5c(N)ncnc53)[C@H](O)[C@@H]4O)cc2n1 [Compound 5] | – | 9.33 |
| Nc1ncnc2c1ncn2[C@@H]1O[C@]2(C[C@@H](O)C2)[C@@H](O)[C@H]1O [Compound 7] | – | 5010 |
| Nc1ncnc2c1ccn2[C@@H]1C[C@]2(C[C@H](Oc3ccc4cccnc4c3)C2)[C@@H](O)[C@H]1O [Compound 11] | – | 91.2 |
| Nc1ncnc2c1ccn2[C@@H]1C[C@]2(C[C@H](Oc3ccc4cc(Cl)cnc4c3)C2)[C@@H](O)[C@H]1O [Compound 12] | – | 2400 |
| Nc1ncnc2c1ccn2[C@@H]1C[C@]2(C[C@H](Cc3ccc4cc(Cl)cnc4c3)C2)[C@@H](O)[C@H]1O [Compound 14] | – | 2000 |
| Nc1ncnc2c1ccn2[C@@H]1C[C@]2(C[C@@H](Cc3ccc4cc(Cl)cnc4c3)C2)[C@@H](O)[C@H]1O [Compound 15] | – | 1100 |
| Nc1nc2cc(C[C@H]3C[C@]4(C[C@@H](n5ccc6c(N)ncnc65)[C@H](O)[C@@H]4O)C3)ccc2s1 [Compound 18] | – | 35.5 |
| Nc1nc2ccc(C[C@H]3C[C@]4(C[C@@H](n5ccc6c(N)ncnc65)[C@H](O)[C@@H]4O)C3)cc2s1 [Compound 22] | – | 1580 |
| Nc1ncnc2c1ccn2[C@@H]1C[C@]2(C[C@H](Cc3ccn4ccnc4c3)C2)[C@@H](O)[C@H]1O [Compound 24] | – | 9.12 |
| Nc1ncnc2c1ccn2[C@@H]1C[C@]2(C[C@@H](Cc3ccn4ccnc4c3)C2)[C@@H](O)[C@H]1O [Compound 25] | – | 10.2 |
| Nc1ncnc2c1ccn2[C@@H]1C[C@]2(C[C@@H](Cc3ccccn3)C2)[C@@H](O)[C@H]1O [Compound 27] | – | 5620 |
| Nc1ncnc2c1ccn2[C@@H]1C[C@]2(C[C@H](Cc3cccnc3)C2)[C@@H](O)[C@H]1O [Compound 28] | – | 145 |
| Nc1ncnc2c1ccn2[C@@H]1C[C@]2(C[C@@H](Cc3cccnc3)C2)[C@@H](O)[C@H]1O [Compound 29] | – | 170 |

Further lines, results first:

| pIC50 | IC50 [nM] | SMILES |
| --- | --- | --- |
| – | 933 | Nc1ncnc2c1ccn2[C@@H]1C[C@]2(C[C@H](CO)C2)[C@@H](O)[C@H]1O (single isomer, unassigned) [Compound 35] |
| – | 1410 | Nc1ncnc2c1ccn2[C@@H]1C[C@]2(C[C@@H](CO)C2)[C@@H](O)[C@H]1O (single isomer, unassigned) [Compound 36] |
| – | 3020 | Nc1ncnc2c1ncn2[C@@H]1O[C@]2(C[C@@H](OCc3ccccc3)C2)[C@@H](O)[C@H]1O [Compound 1] |
| – | 30.9 | Nc1ccc2ccc(O[C@H]3C[C@]4(C3)O[C@@H](n3cnc5c(N)ncnc53)[C@H](O)[C@@H]4O)cc2n1 [Compound 2] |
| – | 120 | Nc1ncnc2c1ncn2[C@@H]1O[C@]2(C[C@H](Oc3ccc4cc(Br)cnc4c3)C2)[C@@H](O)[C@H]1O [Compound 6] |
| – | 3550 | Nc1ncnc2c1ncn2[C@@H]1O[C@]2(C[C@H](O)C2)[C@@H](O)[C@H]1O [Compound 8] |
| – | 257 | Nc1ncnc2c1ncn2[C@@H]1O[C@]2(C[C@H](Oc3ccc4cc(Cl)cnc4c3)C2)[C@@H](O)[C@H]1O [Compound 9] |
| – | 646 | Nc1ncnc2c1ccn2[C@@H]1C[C@]2(C[C@@H](Oc3ccc4cc(Cl)cnc4c3)C2)[C@@H](O)[C@H]1O [Compound 13] |
| – | 490 | Nc1ncnc2c1ccn2[C@@H]1C[C@]2(C[C@H](Cc3ccc4scnc4c3)C2)[C@@H](O)[C@H]1O [Compound 16] |
| – | 389 | Nc1ncnc2c1ccn2[C@@H]1C[C@]2(C[C@@H](Cc3ccc4scnc4c3)C2)[C@@H](O)[C@H]1O [Compound 17] |
| – | 132 | Nc1nc2cc(C[C@H]3C[C@@]4(C[C@@H](n5ccc6c(N)ncnc65)[C@H](O)[C@@H]4O)C3)ccc2s1 [Compound 19] |
| – | 490 | Nc1ncnc2c1ccn2[C@@H]1C[C@]2(C[C@H](Cc3ccc4ncsc4c3)C2)[C@@H](O)[C@H]1O [Compound 20] |
| – | 145 | Nc1ncnc2c1ccn2[C@@H]1C[C@]2(C[C@@H](Cc3ccc4ncsc4c3)C2)[C@@H](O)[C@H]1O [Compound 21] |
| – | 295 | Nc1nc2ccc(C[C@H]3C[C@@]4(C[C@@H](n5ccc6c(N)ncnc65)[C@H](O)[C@@H]4O)C3)cc2s1 [Compound 23] |
| – | 2450 | Nc1ncnc2c1ccn2[C@@H]1C[C@]2(C[C@H](Cc3ccccn3)C2)[C@@H](O)[C@H]1O [Compound 26] |
| – | 1620 | Nc1ncnc2c1ccn2[C@@H]1C[C@]2(C[C@H](COc3cccc(Cl)n3)C2)[C@@H](O)[C@H]1O [Compound 30] |
| – | 3470 | Nc1ncnc2c1ccn2[C@@H]1C[C@]2(C[C@@H](COc3cccc(Cl)n3)C2)[C@@H](O)[C@H]1O [Compound 31] |
| – | 245 | Nc1nc2cc(C[C@H]3C[C@]4(C[C@@H](n5ccc6c(N)ncnc65)[C@H](O)[C@@H]4O)C3)ccc2cc1Br [Compound 33] |
| – | 4570 | Nc1ncnc2c1ncn2[C@@H]1O[C@]2(C[C@H](Cc3ccc4cc(Cl)cnc4c3)C2)[C@@H](O)[C@H]1O [Compound 44] |
| – | 5500 | Nc1ncnc2c1ncn2[C@@H]1O[C@]2(C[C@@H](Cc3ccc4cc(Cl)cnc4c3)C2)[C@@H](O)[C@H]1O [Compound 45] |
